Experimental data published in publication PMC5218480 (PLoS ONE, 2017).

System: MV-4-11 cells
Assay: Gene expression microarray analysis (Affymetrix PrimeView) and GSEA
Format: cell-based, human
Set-up: RFU PODN (11730768_x_at) / Fold change /veh PODN (11730768_x_at) / RFU LINC00158 (11744669_a_at) / Fold change /veh LINC00158 (11744669_a_at) / RFU DUSP10 (11751237_a_at) / Fold change /veh DUSP10 (11751237_a_at) / RFU ID3 (11757404_x_at) / Fold change /veh ID3 (11757404_x_at) / RFU PLEKHG5 (11737974_s_at) / Fold change /veh PLEKHG5 (11737974_s_at) / RFU LRRC4B (11730491_at) / Fold change /veh LRRC4B (11730491_at) / RFU GIMAP4 (11747438_a_at) / Fold change /veh GIMAP4 (11747438_a_at) / RFU KRT8 (11758183_x_at) / Fold change /veh KRT8 (11758183_x_at) / RFU CNN1 (11734310_a_at) / Fold change /veh CNN1 (11734310_a_at) / RFU VPS37D (11726825_at) / Fold change /veh VPS37D (11726825_at) / RFU C10orf10 (11716522_x_at) / Fold change /veh C10orf10 (11716522_x_at) / RFU KIR2DL2 /// KIR2DL4 /// KIR2DL5A /// KIR2DL5B /// KIR2DS1 /// KIR2DS2 /// KIR2DS3 /// KIR2DS4 /// KIR3DL3 /// KIR3DL3 /// KIR3DS1 (11738374_at) / Fold change /veh KIR2DL2 /// KIR2DL4 /// KIR2DL5A /// KIR2DL5B /// KIR2DS1 /// KIR2DS2 /// KIR2DS3 /// KIR2DS4 /// KIR3DL3 /// KIR3DL3 /// KIR3DS1 (11738374_at) / RFU C1QL1 (11718748_at) / Fold change /veh C1QL1 (11718748_at) / RFU TMPRSS4 (11747572_a_at) / Fold change /veh TMPRSS4 (11747572_a_at) / RFU HAMP (11756126_x_at) / Fold change /veh HAMP (11756126_x_at) / RFU RNFT2 (11725882_a_at) / Fold change /veh RNFT2 (11725882_a_at) / RFU NR4A2 (11747474_a_at) / Fold change /veh NR4A2 (11747474_a_at) / RFU ABCC12 (11746883_a_at) / Fold change /veh ABCC12 (11746883_a_at) / RFU TMEM136 (11760407_x_at) / Fold change /veh TMEM136 (11760407_x_at) / RFU CLDN22 /// WWC2 (11732394_at) / Fold change /veh CLDN22 /// WWC2 (11732394_at) / RFU HLA-DPB1 (11760878_x_at) / Fold change /veh HLA-DPB1 (11760878_x_at) / RFU SPINT1 (11716480_a_at) / Fold change /veh SPINT1 (11716480_a_at) / RFU GAP43 (11754022_s_at) / Fold change /veh GAP43 (11754022_s_at) / RFU A4GNT (11735810_at) / Fold change /veh A4GNT (11735810_at) / RFU PRB3 (11715151_x_at) / Fold change /veh PRB3 (11715151_x_at) / RFU TUBB4B (11761932_at) / Fold change /veh TUBB4B (11761932_at) / RFU CAPN14 (11732068_a_at) / Fold change /veh CAPN14 (11732068_a_at) / RFU TMCC2 (11721928_a_at) / Fold change /veh TMCC2 (11721928_a_at) / RFU IRGQ (11745062_a_at) / Fold change /veh IRGQ (11745062_a_at) / RFU FAM174B (11720279_a_at) / Fold change /veh FAM174B (11720279_a_at) / RFU TMPRSS4 (11748680_a_at) / Fold change /veh TMPRSS4 (11748680_a_at) / RFU FAM212B (11763350_a_at) / Fold change /veh FAM212B (11763350_a_at) / RFU PLEKHG5 (11743358_a_at) / Fold change /veh PLEKHG5 (11743358_a_at) / RFU ZSCAN30 (11745921_a_at) / Fold change /veh ZSCAN30 (11745921_a_at) / RFU CMKLR1 (11741424_a_at) / Fold change /veh CMKLR1 (11741424_a_at) / RFU LOC101060620 /// MAPK8IP1 (11723275_at) / Fold change /veh LOC101060620 /// MAPK8IP1 (11723275_at) / RFU SPTSSB (11747773_x_at) / Fold change /veh SPTSSB (11747773_x_at) / RFU PRSS12 (11739890_at) / Fold change /veh PRSS12 (11739890_at) / RFU BIN1 (11741810_x_at) / Fold change /veh BIN1 (11741810_x_at) / RFU WNT11 (11732464_a_at) / Fold change /veh WNT11 (11732464_a_at) / RFU C10orf10 (11716521_a_at) / Fold change /veh C10orf10 (11716521_a_at) / RFU C5orf56 (11738089_at) / Fold change /veh C5orf56 (11738089_at) / RFU CYB561 (11721691_x_at) / Fold change /veh CYB561 (11721691_x_at) / RFU ANKRD19P (11752326_a_at) / Fold change /veh ANKRD19P (11752326_a_at) / RFU OR2T12 /// OR2T33 /// OR2T8 (11738714_s_at) / Fold change /veh OR2T12 /// OR2T33 /// OR2T8 (11738714_s_at) / RFU VCAN (11748164_a_at) / Fold change /veh VCAN (11748164_a_at) / RFU JSRP1 (11732532_at) / Fold change /veh JSRP1 (11732532_at) / RFU KRTAP10-11 (11738290_x_at) / Fold change /veh KRTAP10-11 (11738290_x_at) / RFU MYO3A (11730013_a_at) / Fold change /veh MYO3A (11730013_a_at) / RFU EBF3 (11725865_a_at) / Fold change /veh EBF3 (11725865_a_at) / RFU CAMK2N1 (11719241_x_at) / Fold change /veh CAMK2N1 (11719241_x_at) / RFU C5orf56 (11738088_a_at) / Fold change /veh C5orf56 (11738088_a_at) / RFU OLFML3 (11715873_a_at) / Fold change /veh OLFML3 (11715873_a_at) / RFU LOC100653217 /// NTM (11731650_a_at) / Fold change /veh LOC100653217 /// NTM (11731650_a_at) / RFU MAPK11 (11762145_a_at) / Fold change /veh MAPK11 (11762145_a_at) / RFU FIZ1 (11724087_x_at) / Fold change /veh FIZ1 (11724087_x_at) / RFU OASL (11726364_x_at) / Fold change /veh OASL (11726364_x_at) / RFU SOX15 (11748057_x_at) / Fold change /veh SOX15 (11748057_x_at) / RFU CD79A (11719716_a_at) / Fold change /veh CD79A (11719716_a_at) / RFU HIST1H1D (11736915_at) / Fold change /veh HIST1H1D (11736915_at) / RFU CASKIN2 (11723855_a_at) / Fold change /veh CASKIN2 (11723855_a_at) / RFU LOC730098 (11760151_x_at) / Fold change /veh LOC730098 (11760151_x_at) / RFU OR4N2 (11742367_at) / Fold change /veh OR4N2 (11742367_at) / RFU PRRT2 (11749266_a_at) / Fold change /veh PRRT2 (11749266_a_at) / RFU SNX32 (11753110_a_at) / Fold change /veh SNX32 (11753110_a_at) / RFU CDHR5 (11726645_a_at) / Fold change /veh CDHR5 (11726645_a_at) / RFU RCAN1 (11760418_a_at) / Fold change /veh RCAN1 (11760418_a_at) / RFU FAM167A (11723789_a_at) / Fold change /veh FAM167A (11723789_a_at) / RFU FAM26E (11764081_at) / Fold change /veh FAM26E (11764081_at) / RFU ISYNA1 (11749810_s_at) / Fold change /veh ISYNA1 (11749810_s_at) / RFU ACY1 (11761880_at) / Fold change /veh ACY1 (11761880_at) / RFU 11764098_at / Fold change /veh 11764098_at / RFU SAMD14 (11745864_x_at) / Fold change /veh SAMD14 (11745864_x_at) / RFU NPB (11741838_a_at) / Fold change /veh NPB (11741838_a_at) / RFU TMPRSS6 (11731388_a_at) / Fold change /veh TMPRSS6 (11731388_a_at) / RFU KRTAP10-2 (11738614_at) / Fold change /veh KRTAP10-2 (11738614_at) / RFU ARHGAP8 /// PRR5-ARHGAP8 (11727945_x_at) / Fold change /veh ARHGAP8 /// PRR5-ARHGAP8 (11727945_x_at) / RFU KRTAP5-7 /// NADSYN1 (11734609_at) / Fold change /veh KRTAP5-7 /// NADSYN1 (11734609_at) / RFU RASL12 (11751679_a_at) / Fold change /veh RASL12 (11751679_a_at) / RFU CDKN2B (11736163_a_at) / Fold change /veh CDKN2B (11736163_a_at) / RFU PRF1 (11729649_at) / Fold change /veh PRF1 (11729649_at) / RFU, ZNF638 /// ZNF638-IT1 / Fold change vs veh, ZNF638 /// ZNF638-IT1 / RFU, PANK3 / Fold change vs veh, PANK3 / RFU, SH3YL1 / Fold change vs veh, SH3YL1 / RFU, ZEB2 / Fold change vs veh, ZEB2 / RFU, NRIP1 / Fold change vs veh, NRIP1 / RFU, PTTG1IP / Fold change vs veh, PTTG1IP / RFU, CAPN2 / Fold change vs veh, CAPN2 / RFU, MED14 / Fold change vs veh, MED14 / RFU, SNORA58 / Fold change vs veh, SNORA58 / RFU, C1orf63 / Fold change vs veh, C1orf63 / RFU, LRRFIP1 / Fold change vs veh, LRRFIP1 / RFU, NDUFAF7 / Fold change vs veh, NDUFAF7 / RFU, SLC12A2 / Fold change vs veh, SLC12A2 / RFU, IBTK / Fold change vs veh, IBTK / RFU, ESF1 / Fold change vs veh, ESF1 / Fold change vs veh, TMEM50B / RFU, TAOK1 / Fold change vs veh, TAOK1 / RFU, ACBD3 / Fold change vs veh, ACBD3 / RFU, TMA16 / Fold change vs veh, TMA16 / RFU, RWDD3 / Fold change vs veh, RWDD3 / RFU, BCAT1 / Fold change vs veh, BCAT1 / RFU, EDEM3 / Fold change vs veh, EDEM3 / RFU, TMEM33 / Fold change vs veh, TMEM33 / RFU, WDR75 / Fold change vs veh, WDR75 / RFU, AHCTF1 / Fold change vs veh, AHCTF1 / RFU, TFRC / Fold change vs veh, TFRC / RFU, ZDHHC17 / Fold change vs veh, ZDHHC17 / RFU, NOM1 / Fold change vs veh, NOM1 / RFU, ARL8B / Fold change vs veh, ARL8B / RFU, ZBTB11 / Fold change vs veh, ZBTB11 / RFU, TAMM41 / Fold change vs veh, TAMM41 / RFU, KIAA1704 /// LOC100996395 / Fold change vs veh, KIAA1704 /// LOC100996395 / RFU, ING1 / Fold change vs veh, ING1 / RFU, TRMT61B / Fold change vs veh, TRMT61B / RFU, FUBP3 / Fold change vs veh, FUBP3 / RFU, TP53 / Fold change vs veh, TP53 / RFU, TNKS2 / Fold change vs veh, TNKS2 / RFU, ZFP14 / Fold change vs veh, ZFP14 / RFU, ACTR2 / Fold change vs veh, ACTR2 / RFU, PPP3R1 / Fold change vs veh, PPP3R1 / RFU, PIK3R1 / Fold change vs veh, PIK3R1 / RFU, HNRNPA1 / Fold change vs veh, HNRNPA1 / RFU, RNF170 / Fold change vs veh, RNF170 / RFU, ZNF28 / Fold change vs veh, ZNF28 / RFU, RNGTT / Fold change vs veh, RNGTT / RFU, OGT / Fold change vs veh, OGT / RFU, BRD1 / Fold change vs veh, BRD1 / RFU, MARS / Fold change vs veh, MARS / RFU, ZNF655 / Fold change vs veh, ZNF655 / RFU, FAHD1 / Fold change vs veh, FAHD1 / RFU, BDP1 / Fold change vs veh, BDP1 / RFU, LRRCC1 / Fold change vs veh, LRRCC1 / RFU, ARID1A / Fold change vs veh, ARID1A / RFU, ZNF146 / Fold change vs veh, ZNF146 / RFU, ZNF330 / Fold change vs veh, ZNF330 / RFU, GPN3 / Fold change vs veh, GPN3 / RFU, C9orf123 / Fold change vs veh, C9orf123 / RFU, N4BP2L2 / Fold change vs veh, N4BP2L2 / RFU, ARFIP1 / Fold change vs veh, ARFIP1 / RFU, FAM179B / Fold change vs veh, FAM179B / RFU, BCL10 / Fold change vs veh, BCL10 / RFU, UHRF1BP1L / Fold change vs veh, UHRF1BP1L / RFU, BET1 / Fold change vs veh, BET1 / RFU, CNOT2 / Fold change vs veh, CNOT2 / RFU, ZNF268 / Fold change vs veh, ZNF268 / Fold change vs veh, ZNF507 / RFU, DGCR2 / Fold change vs veh, DGCR2 / RFU, WDSUB1 / Fold change vs veh, WDSUB1 / Fold change vs veh, HSP90B1 /// MIR3652 / RFU, ADSS / Fold change vs veh, ADSS / RFU, GK / Fold change vs veh, GK / RFU, ZNF148 / Fold change vs veh, ZNF148 / RFU, TAF9 / Fold change vs veh, TAF9 / RFU, SLC1A5 / Fold change vs veh, SLC1A5 / RFU, SLMO2 / Fold change vs veh, SLMO2 / RFU, ABCC4 / Fold change vs veh, ABCC4 / RFU, LOC101060439 /// RAP1B / Fold change vs veh, LOC101060439 /// RAP1B / RFU, RFX7 / Fold change vs veh, RFX7 / RFU, GTPBP10 / Fold change vs veh, GTPBP10 / RFU, CNEP1R1 / Fold change vs veh, CNEP1R1 / RFU, BIVM-ERCC5 /// ERCC5 / Fold change vs veh, BIVM-ERCC5 /// ERCC5 / RFU, ILF3 / Fold change vs veh, ILF3 / RFU 11762660_at / Fold change /veh 11762660_at / RFU VCAN (11757783_s_at) / Fold change /veh VCAN (11757783_s_at) / RFU DDX43 (11728927_at) / Fold change /veh DDX43 (11728927_at) / RFU KRT8 (11758188_x_at) / Fold change /veh KRT8 (11758188_x_at) / RFU NKD1 (11759106_at) / Fold change /veh NKD1 (11759106_at) / RFU SRD5A1 (11742802_a_at) / Fold change /veh SRD5A1 (11742802_a_at) / RFU TPSAB1 /// TPSB2 (11721975_s_at) / Fold change /veh TPSAB1 /// TPSB2 (11721975_s_at) / RFU GSTM3 (11746129_a_at) / Fold change /veh GSTM3 (11746129_a_at) / RFU IL23R (11737362_x_at) / Fold change /veh IL23R (11737362_x_at) / RFU TMEM51 (11727254_a_at) / Fold change /veh TMEM51 (11727254_a_at) / RFU PIWIL2 (11732686_x_at) / Fold change /veh PIWIL2 (11732686_x_at) / RFU ORM1 (11744905_x_at) / Fold change /veh ORM1 (11744905_x_at) / RFU CCDC152 (11743942_at) / Fold change /veh CCDC152 (11743942_at) / RFU ECM1 (11717891_a_at) / Fold change /veh ECM1 (11717891_a_at) / RFU IL23R (11748794_a_at) / Fold change /veh IL23R (11748794_a_at) / RFU TNFAIP8L3 (11732012_x_at) / Fold change /veh TNFAIP8L3 (11732012_x_at) / RFU MBOAT4 (11741988_at) / Fold change /veh MBOAT4 (11741988_at) / RFU 11764193_at / Fold change /veh 11764193_at / RFU TMEM53 (11763286_at) / Fold change /veh TMEM53 (11763286_at) / RFU MAGEB2 (11727129_at) / Fold change /veh MAGEB2 (11727129_at) / RFU TMEM200A (11744735_a_at) / Fold change /veh TMEM200A (11744735_a_at) / RFU CCDC152 (11751479_a_at) / Fold change /veh CCDC152 (11751479_a_at) / RFU FAM211A (11726209_a_at) / Fold change /veh FAM211A (11726209_a_at) / RFU RGS16 (11746705_a_at) / Fold change /veh RGS16 (11746705_a_at) / RFU VCAN (11755009_s_at) / Fold change /veh VCAN (11755009_s_at) / RFU RHOB (11743442_s_at) / Fold change /veh RHOB (11743442_s_at) / RFU RGS16 (11720943_a_at) / Fold change /veh RGS16 (11720943_a_at) / RFU RGS16 (11720944_at) / Fold change /veh RGS16 (11720944_at) / RFU, VPS4B / Fold change vs veh, VPS4B / RFU, CREB1 / Fold change vs veh, CREB1 / RFU, DNAJC13 / Fold change vs veh, DNAJC13 / RFU, GNAQ / Fold change vs veh, GNAQ / RFU, CDK5R1 / Fold change vs veh, CDK5R1 / RFU, ZRANB3 / Fold change vs veh, ZRANB3 / RFU, CUL4A / Fold change vs veh, CUL4A / RFU, CCNY / Fold change vs veh, CCNY / RFU, UFL1 / Fold change vs veh, UFL1 / RFU, COG3 / Fold change vs veh, COG3 / RFU, DIAPH2 / Fold change vs veh, DIAPH2 / RFU, SKA2 / Fold change vs veh, SKA2 / RFU, AFF3 / Fold change vs veh, AFF3 / RFU, LMF1 / Fold change vs veh, LMF1 / RFU, IPO11 / Fold change vs veh, IPO11 / RFU, DFFB / Fold change vs veh, DFFB / RFU, FOXP1 / Fold change vs veh, FOXP1 / RFU, CARD8 / Fold change vs veh, CARD8 / RFU, STRN3 / Fold change vs veh, STRN3 / RFU, ADK / Fold change vs veh, ADK / RFU, RASSF2 / Fold change vs veh, RASSF2 / RFU, WIPF1 / Fold change vs veh, WIPF1 / RFU, LARP1B / Fold change vs veh, LARP1B / RFU, RASA1 / Fold change vs veh, RASA1 / RFU, RB1 / Fold change vs veh, RB1 / RFU, PPFIA1 / Fold change vs veh, PPFIA1 / RFU, MAT2A / Fold change vs veh, MAT2A / RFU, CCT5 / Fold change vs veh, CCT5 / RFU, WDR92 / Fold change vs veh, WDR92 / RFU, CUX1 / Fold change vs veh, CUX1 / RFU, TTC7A / Fold change vs veh, TTC7A / RFU, TMEM135 / Fold change vs veh, TMEM135 / RFU, DEPTOR / Fold change vs veh, DEPTOR / RFU, CPM / Fold change vs veh, CPM / RFU, DNAJB6 / Fold change vs veh, DNAJB6 / RFU, CACNA2D3 / Fold change vs veh, CACNA2D3 / RFU, DTX4 / Fold change vs veh, DTX4 / RFU, TFCP2 / Fold change vs veh, TFCP2 / RFU, GMCL1 /// GMCL1P1 / Fold change vs veh, GMCL1 /// GMCL1P1 / RFU, AEBP2 / Fold change vs veh, AEBP2 / RFU, SNHG1 /// SNORD22 /// SNORD25 /// SNORD26 /// SNORD27 /// SNORD28 /// SNORD29 /// SNORD31 / Fold change vs veh, SNHG1 /// SNORD22 /// SNORD25 /// SNORD26 /// SNORD27 /// SNORD28 /// SNORD29 /// SNORD31 / Fold change (Aza/veh), C12orf56 (ProbeSet 11735607_a_at) / Fold change (ACY-1035/veh), C12orf56 (ProbeSet 11735607_a_at) / Fold change (Aza/veh), FGFR1OP (ProbeSet 11751329_s_at) / Fold change (ACY-1035/veh), FGFR1OP (ProbeSet 11751329_s_at) / Fold change (Aza/veh), VPS36 (ProbeSet 11739960_a_at) / Fold change (ACY-1035/veh), VPS36 (ProbeSet 11739960_a_at) / RFU SYPL1 (11715823_x_at) / Fold change /veh SYPL1 (11715823_x_at) / RFU IGFBP7 (11715501_s_at) / Fold change /veh IGFBP7 (11715501_s_at) / RFU REEP3 (11722064_at) / Fold change /veh REEP3 (11722064_at) / RFU IGLL1 (11728026_x_at) / Fold change /veh IGLL1 (11728026_x_at): dose or concentration left out as unconfirmed
Conditions: MV-4-11 cells, 48 hours

**Q.** With `Nc1ncn([C@@H]2O[C@H](CO)[C@@H](O)[C@H]2O)c(=O)n1` [azacitidine] as the compound, how does the “Fold change /veh OR4N2 (11742367_at)” value read?
**A.** 1.01
